Where two headings read alike, the source gives them in different places.

14 molecules from publication PMC8716824, “Design, Synthesis and Anti-Lung Cancer Evaluation of 1, 2, 3-Triazole Tethered Dihydroartemisinin-Isatin Hybrids” (Frontiers in Pharmacology, 2021) can be followed below.

Common to all, as to type: cell-based
Test [1] has as its system cisplatin-resistant A549 (A549/DDP) lung cancer cells. Briefly: MTT antiproliferative assay, A549/DDP. Here is the method:
(§1) The antiproliferative activity of 1,2,3-triazole tethered dihydroartemisinin-isatin hybrids 8a-c and 9a-k against A549, multidrug-resistant A549/DOX and A549/DDP lung cancer cell lines as well as cytotoxicity towards mouse embryonic fibroblast cells NIH/3T3 were assessed by 3-(4,5-dimethylthiazol-2-yl)-2,5-diphenyltetrazolium bromide (MTT) assay, and half maximal inhibitory concentration (IC50) values were listed in Table 2. A549, A549/DOX, and A549/DDP lung cancer cells (2 × 10^3) were plated in each well of a 96-well plate and were allowed to adhere and spread for 24 h. The 1,2,3-triazole tethered dihydroartemisinin-isatin hybrids 8a-c and 9a-k were added to a final concentration of 100 μM, and the cells were cultured for 24 h at 37°C. 3-(4,5-dimethyl-2-thiazolyl)-2,5-diphenyltetrazolium bromide (MTT) solution (10 µL) was added to each well, and the cultures were incubated for an additional 4 h. A further 100 µL of […] was added and incubation continued overnight. The absorbance at 540 nm was determined in each well with a 96-well plate reader. The growth of the treated cells was compared with that of untreated cells.
In general terms: Tetrazolium dyes change colour on reduction, which living cells bring about.

For test [2], the system named is doxorubicin-resistant A549 (A549/DOX) lung cancer cells. In words: MTT antiproliferative assay, A549/DOX. Here is the method:
as §1

Test [3] relates to mouse embryonic fibroblast cells NIH/3T3. Briefly: MTT cytotoxicity assay, NIH/3T3. The note with it: for SI (selectivity index): IC50(NIH/3T3)/IC50(A549); for IC50: cytotoxicity, NIH/3T3 cells, MTT (called CC50 in method). As to the method:
The antiproliferative activity of 1,2,3-triazole tethered dihydroartemisinin-isatin hybrids 8a-c and 9a-k against A549, multidrug-resistant A549/DOX and A549/DDP lung cancer cell lines as well as cytotoxicity towards mouse embryonic fibroblast cells NIH/3T3 were assessed by 3-(4,5-dimethylthiazol-2-yl)-2,5-diphenyltetrazolium bromide (MTT) assay, and half maximal inhibitory concentration (IC50) values were listed in Table 2.
The cytotoxicity (CC50) of the synthesized 1,2,3-triazole tethered dihydroartemisinin-isatin hybrids 8a-c and 9a-k were examined by the MTT assay in mouse embryonic fibroblast cells NIH/3T3. The compounds were dissolved in DMSO with concentrations from 1,024 to 1 μg/ml. The NIH/3T3 cells were maintained in culture medium at 37°C under 5% CO2 atmosphere. Cells were seeded in 96-well plates (1 × 10^4 cell per well) and allowed to recover for 24 h. After 72 h of exposure, cells were harvested and cell viability was assessed by MTT assay. The CC50 values were calculated by Bliss analy.

The test system of test [4] is A549 lung cancer cells. Briefly: MTT antiproliferative assay, A549. Here is the method: as §1
For test [5], the system named is A549, A549/DOX and A549/DDP lung cancer cell lines. Briefly: MTT antiproliferative assay, ranges pooled over lung cancer cell lines. Here is the method: as §1
[6] abbreviates: range over the three lung cancer cell lines, read-out: IC50, range over A549, A549/DOX and A549/DDP.

Consider `C[C@@H]1CC[C@H]2[C@@H](C)C(OCc3cn(CCN4C(=O)C(=NO)c5ccccc54)nn3)O[C@@H]3O[C@@]4(C)CC[C@@H]1[C@]32OO4` (stereo partly drawn) [9b, 3-(hydroxyimino)-1-(2-(4-((((3R,5aS,6R,8aS,9R,12R,12aR)-3,6,9-trimethyldecahydro-12H-3,12-epoxy[1,2]dioxepino[4,3-i]isochromen-10-yl)oxy)methyl)-1H-1,2,3-triazol-1-yl)ethyl)indolin-2-one], for which the IC50 is 30.3 µM in test [1] (A549/DDP); 26.1 µM in test [2] (Homo sapiens); > 100 µM in test [3] (Mus musculus, NIH3T3); 12 µM in test [4] (Homo sapiens). Further, the “SI (selectivity index)” value in test [3] is >8.3.

Regarding `COc1ccc2c(c1)C(=NOCc1ccccc1)C(=O)N2CCn1cc(COC2O[C@@H]3O[C@@]4(C)CC[C@H]5[C@H](C)CC[C@@H]([C@H]2C)[C@@]35OO4)nn1` (stereo partly drawn) [9h, 3-((benzyloxy)imino)-5-methoxy-1-(2-(4-((((3R,5aS,6R,8aS,9R,12R,12aR)-3,6,9-trimethyldecahydro-12H-3,12-epoxy[1,2]dioxepino[4,3-i]isochromen-10-yl)oxy)methyl)-1H-1,2,3-triazol-1-yl)ethyl)indolin-2-one], the IC50 was 59.4 µM in test [1] (A549/DDP); 77.7 µM in test [2] (Homo sapiens); > 100 µM in test [3] (Mus musculus, NIH3T3); 44.7 µM in test [4] (Homo sapiens). Further, the “SI (selectivity index)” value in test [3] was >2.2.

With `CON=C1C(=O)N(CCn2cc(COC3O[C@@H]4O[C@@]5(C)CC[C@H]6[C@H](C)CC[C@@H]([C@H]3C)[C@@]46OO5)nn2)c2ccc(OC)cc21` (stereo partly drawn) [9f, 5-methoxy-3-(methoxyimino)-1-(2-(4-((((3R,5aS,6R,8aS,9R,12R,12aR)-3,6,9-trimethyldecahydro-12H-3,12-epoxy[1,2]dioxepino[4,3-i]isochromen-10-yl)oxy)methyl)-1H-1,2,3-triazol-1-yl)ethyl)indolin-2-one], the IC50 in test [1] (A549/DDP) is 51.8 µM; in test [2] (Homo sapiens), 79.5 µM; in test [3] (Mus musculus, NIH3T3), > 100 µM; in test [4] (Homo sapiens) it was 65.4 µM. In addition, the “SI (selectivity index)” value in test [3] is >1.5.

For the molecule `N.N.[Cl][Pt][Cl]` [cisplatin, reference compound], the IC50 in test [1] was 66.9 µM; in test [5] (range over A549 and A549/DOX, read-out: IC50, range over A549 and A549/DOX) it was 9.38 to 19.7 µM; in test [5] (setting [6]), 9.38 to 66.9 µM; in test [2], 19.7 µM; in test [3], > 100 µM; in test [4] it was 9.38 µM.

With `CON=C1C(=O)N(CCn2cc(COC3O[C@@H]4O[C@@]5(C)CC[C@H]6[C@H](C)CC[C@@H]([C@H]3C)[C@@]46OO5)nn2)c2ccccc21` (stereo partly drawn) [9c, 3-(methoxyimino)-1-(2-(4-((((3R,5aS,6R,8aS,9R,12R,12aR)-3,6,9-trimethyldecahydro-12H-3,12-epoxy[1,2]dioxepino[4,3-i]isochromen-10-yl)oxy)methyl)-1H-1,2,3-triazol-1-yl)ethyl)indolin-2-one], the IC50 in test [1] (A549/DDP) was 27.4 µM; in test [2] (Homo sapiens), 19.5 µM; in test [3] (Mus musculus, NIH3T3), > 100 µM; in test [4] (Homo sapiens), 22.7 µM. For the same molecule, the “SI (selectivity index)” value in test [3] was >4.4.

On to `C[C@@H]1CC[C@H]2[C@@H](C)C(=O)O[C@@H]3O[C@@]4(C)CC[C@@H]1[C@]32OO4` [Artemisinin], for which the IC50 is > 100 µM in test [1] (A549/DDP); > 100 µM in test [5] (setting [6]); > 100 µM in test [2] (Homo sapiens); > 100 µM in test [3] (Mus musculus, NIH3T3); > 100 µM in test [4] (Homo sapiens).

Turning to `COc1ccc2c(c1)C(=O)C(=O)N2CCn1cc(COC2O[C@@H]3O[C@@]4(C)CC[C@H]5[C@H](C)CC[C@@H]([C@H]2C)[C@@]35OO4)nn1` (stereo partly drawn) [8b, 5-methoxy-1-(2-(4-((((3R,5aS,6R,8aS,9R,12R,12aR)-3,6,9-trimethyldecahydro-12H-3,12-epoxy[1,2]dioxepino[4,3-i]isochromen-10-yl)oxy)methyl)-1H-1,2,3-triazol-1-yl)ethyl)indoline-2,3-dione], the IC50 in test [1] (A549/DDP) was 19.5 µM; in test [2] (Homo sapiens) it was 32 µM; in test [3] (Mus musculus, NIH3T3) it was > 100 µM; in test [4] (Homo sapiens), 21.6 µM. Also, the “SI (selectivity index)” value in test [3] is recorded as >4.6.

Turning to `C[C@H]1[C@@H](O)O[C@@H]2O[C@@]3(C)CC[C@H]4[C@H](C)CC[C@@H]1[C@@]24OO3` [DHA, Dihydroartemisinin], the IC50 was 75.9 µM in test [1] (A549/DDP); 69.4 to 88 µM in test [5] (setting [6]); 88 µM in test [2] (Homo sapiens); > 100 µM in test [3] (Mus musculus, NIH3T3); 69.4 µM in test [4] (Homo sapiens). In test [3], the “SI (selectivity index)” value is >1.4.

With `C[C@@H]1CC[C@H]2[C@@H](C)C(OCc3cn(CCN4C(=O)C(=NNC(N)=S)c5ccccc54)nn3)O[C@@H]3O[C@@]4(C)CC[C@@H]1[C@]32OO4` (stereo partly drawn) [9a, 2-(2-oxo-1-(2-(4-((((3R,5aS,6R,8aS,9R,12R,12aR)-3,6,9-trimethyldecahydro-12H-3,12-epoxy[1,2]dioxepino[4,3-i]isochromen-10-yl)oxy)methyl)-1H-1,2,3-triazol-1-yl)ethyl)indolin-3-ylidene)hydrazine-1-carbothioamide], the IC50 in test [1] (A549/DDP) was 30.9 µM; in test [2] (Homo sapiens) it was 38.4 µM; in test [3] (Mus musculus, NIH3T3), > 100 µM; in test [4] (Homo sapiens), 16.3 µM. In addition, in test [3], the “SI (selectivity index)” value was >6.1.

Consider `CCON=C1C(=O)N(CCn2cc(COC3O[C@@H]4O[C@@]5(C)CC[C@H]6[C@H](C)CC[C@@H]([C@H]3C)[C@@]46OO5)nn2)c2ccc(OC)cc21` (stereo partly drawn) [9g, 3-(ethoxyimino)-5-methoxy-1-(2-(4-((((3R,5aS,6R,8aS,9R,12R,12aR)-3,6,9-trimethyldecahydro-12H-3,12-epoxy[1,2]dioxepino[4,3-i]isochromen-10-yl)oxy)methyl)-1H-1,2,3-triazol-1-yl)ethyl)indolin-2-one], for which the IC50 is 61.7 µM in test [1] (A549/DDP); 45 µM in test [2] (Homo sapiens); > 100 µM in test [3] (Mus musculus, NIH3T3); 73.8 µM in test [4] (Homo sapiens). Moreover, the “SI (selectivity index)” value in test [3] was >1.3.

On to `CON=C1C(=O)N(CCn2cc(COC3O[C@@H]4O[C@@]5(C)CC[C@H]6[C@H](C)CC[C@@H]([C@H]3C)[C@@]46OO5)nn2)c2ccc(F)cc21` (stereo partly drawn) [9j, 5-fluoro-3-(methoxyimino)-1-(2-(4-((((3R,5aS,6R,8aS,9R,12R,12aR)-3,6,9-trimethyldecahydro-12H-3,12-epoxy[1,2]dioxepino[4,3-i]isochromen-10-yl)oxy)methyl)-1H-1,2,3-triazol-1-yl)ethyl)indolin-2-one], for which the IC50 is 38.2 µM in test [1] (A549/DDP); 13 µM in test [2] (Homo sapiens); > 100 µM in test [3] (Mus musculus, NIH3T3); 9.61 µM in test [4] (Homo sapiens). Further, the “SI (selectivity index)” value in test [3] is >10.4.

With `CCON=C1C(=O)N(CCn2cc(COC3O[C@@H]4O[C@@]5(C)CC[C@H]6[C@H](C)CC[C@@H]([C@H]3C)[C@@]46OO5)nn2)c2ccc(F)cc21` (stereo partly drawn) [9k, 3-(ethoxyimino)-5-fluoro-1-(2-(4-((((3R,5aS,6R,8aS,9R,12R,12aR)-3,6,9-trimethyldecahydro-12H-3,12-epoxy[1,2]dioxepino[4,3-i]isochromen-10-yl)oxy)methyl)-1H-1,2,3-triazol-1-yl)ethyl)indolin-2-one], the IC50 in test [1] (A549/DDP) is 28.7 µM; in test [2] (Homo sapiens), 31.1 µM; in test [3] (Mus musculus, NIH3T3) it was > 100 µM; in test [4] (Homo sapiens) it was 15.8 µM. In addition, the “SI (selectivity index)” value in test [3] is >6.3.

Regarding `CCON=C1C(=O)N(CCn2cc(COC3O[C@@H]4O[C@@]5(C)CC[C@H]6[C@H](C)CC[C@@H]([C@H]3C)[C@@]46OO5)nn2)c2ccccc21` (stereo partly drawn) [9d, 3-(ethoxyimino)-1-(2-(4-((((3R,5aS,6R,8aS,9R,12R,12aR)-3,6,9-trimethyldecahydro-12H-3,12-epoxy[1,2]dioxepino[4,3-i]isochromen-10-yl)oxy)methyl)-1H-1,2,3-triazol-1-yl)ethyl)indolin-2-one], the IC50 was 33.7 µM in test [1] (A549/DDP); 20.8 µM in test [2] (Homo sapiens); > 100 µM in test [3] (Mus musculus, NIH3T3); 25.6 µM in test [4] (Homo sapiens). In addition, the “SI (selectivity index)” value in test [3] was >3.9.

For the molecule `C[C@@H]1CC[C@H]2[C@@H](C)C(OCc3cn(CCN4C(=O)C(=NOCc5ccccc5)c5ccccc54)nn3)O[C@@H]3O[C@@]4(C)CC[C@@H]1[C@]32OO4` (stereo partly drawn) [9e, 3-((benzyloxy)imino)-1-(2-(4-((((3R,5aS,6R,8aS,9R,12R,12aR)-3,6,9-trimethyldecahydro-12H-3,12-epoxy[1,2]dioxepino[4,3-i]isochromen-10-yl)oxy)methyl)-1H-1,2,3-triazol-1-yl)ethyl)indolin-2-one], the IC50 in test [1] (A549/DDP) was 29.9 µM; in test [2] (Homo sapiens) it was 31.4 µM; in test [3] (Mus musculus, NIH3T3), > 100 µM; in test [4] (Homo sapiens), 16.3 µM. Further, in test [3], the “SI (selectivity index)” value is recorded as >6.1.
